From patent US5543392A, “Digestive tract cell activating agent of EGF and lactoferrin” (Morinaga Milk Industry Co., Ltd., priority 1992, dated 1996) come the findings set out here.

In test [1] the test system is IEC18 cells. The test is described as follows: Test 1: DNA synthesis acceleration activity of EGF (3H-thymidine incorporation). Particulars: for Quantity of incorporated 3H thymidine, average value (n = 4): 18 h, 1% FBS-DMEM. Format: cell-based, rat. As for the experimental part:
This test was carried out to determine an optimum concentration for DNA synthesis acceleration activity of EGF relative to small intestine epithelial cells.
IEC18 cells (purchased from the American Type Culture Collection) which are epithelial crypt-cells of rat small intestine were inoculated into a 24-well culture plate by 10,000 cells per hole and cultured with Dulbecco modified Eagle's medium containing 10% fetal bovine serum (hereinafter abbreviated as "10% FBS-DMEM") until the cells became confluence (1 ml of medium was used per well). Then, the medium was replaced with 1% FBS-DMEM culture was conducted for another three days to introduce the cell cycle into the resting phase. The medium was replaced with of 1% FBS-DMEM (0.5 ml) containing EGF at various concentrations and culture was conducted for 18 hours. Then, the medium was replaced with DME (0.35 ml) containing ^3 H-thymidine (tritium labeling: thymidine 1 micro curie/ml), the cultuure was conducted for another two hours. The result cells were rinsed twice with phosphate-buffered saline [PBS (-), 2 ml], then, ice-cooled 5% trifluoroacetic acid (5% TFA, 2 ml) was added. This was stored in a refrigerator for an hour. The cells were washed twice with 5% TFA (2 ml) and 1N NaOH (0.4 ml) was added. By holding this at 37° C. for an hour, the cells were dissolved. Then, the solution was neutralized by adding 6N HCl (0.08 ml), and therefore, the quantity of ^3 H-thymidine incorporated into DNA was measured by means of a liquid scintillation counter.
(In general: Incorporation of labelled thymidine or its analogues reports DNA synthesis.)

The subject of test [2] is IEC18 cells. The test is described as follows: Test 3: proliferation of small intestine epithelial cells (cell count by hemocytometer). It is filed as cell-based, rat. As to conditions: single addition of 10 ng/ml EGF; ten days culture; versus control group with no addition. The protocol: ICE18 cells (the same ones as in the Test 1) were inoculated onto a 24-well culture plate by 5,000 cells per well, and were cultured for ten days with 1% FBS DMEM (0.5 ml) containing the following test subjects. During this test period, the medium was replaced on the third and the sixth days, and the number of cells was measured on the third, the sixth and the tenth days. The number of cells was counted by a hemocytometer after treating the cells with 0.25% trypsin solution and suspending them in the solution.
The test subjects included a sample added with nothing, a sample added with 10 ng/ml EGF, a sample added with 50 μg/ml bLf or bLf-Hy, and a sample added with 10 ng/ml EGF and 50 μg/ml bLf or bLf-Hy.

For the substance “EGF: Commercially available mouse submaxillary gland originating EGF (manufactured by Takara Shuzo Company) (NSYPGCPSSYDGYCLNGGVCMHIESLDSYTCNCVIGYSGDRCQTRDLRWWELR; not fully specified; Epidermal growth factor; UniProt P01132 977-1029, looked up)”, the “Quantity of incorporated 3H thymidine, average value (n = 4)” value came out at 17874 cpm with IEC18 cells [1] (EGF concentration 0.08 ng/ml); 25398 cpm with IEC18 cells [1] (EGF concentration 0.2 ng/ml (so in the source)); 19644 cpm with IEC18 cells [1] (EGF concentration 0.4 ng/ml); 26152 cpm in the test with IEC18 cells [1] (EGF concentration 10.0 ng/ml); 22665 cpm in the test on IEC18 cells [1] (EGF concentration 50.0 ng/ml). Also, the “optimum working concentration of EGF for DNA synthesis” value with IEC18 cells [1] (IEC18 cells) was found to be 10 ng/mL. Besides, the “number of cells (FIGS. 3 and 4)” value in the test with IEC18 cells [2] is “absence of effect”.
